In brackets after ≈: the same amount, converted by molar mass.
Legend:
[1] = hydrolysis of esters in phosphate buffer; type: in vitro ADME; settings: pH 7.4, 10 μg/ml, 30 min, 37°C, corrected for blank, read-out: % hydrolyzed after 30 min at 37°C, phosphate buffer
Description: (§1) The hydrolysis of the esters of the aminopenicillins prepared according to the invention were determined in buffer solution with and without human serum being present. The esters were incubated for 30 min at 37°C at a concentration of 10 μg/ml in Sorensen's phosphate buffer (pH 7.4) and in another experiment in the same buffer containing 10 % human serum. The test solutions were extracted with ethyl acetate to remove unhydrolyzed ester and were analyzed microbiologically for their contents of aminopenicillin. Blank values were obtained by dissolving the esters in phosphate buffer at the same concentration and immediately perform the extraction. The values in the table are corrected for the blank values.

[2] = hydrolysis of esters in phosphate buffer + 10% human serum; type: in vitro ADME; settings: buffer with 10% serum; pH 7.4, 10% human serum, 10 μg/ml, 30 min, 37°C, corrected for blank; read-out: % hydrolyzed after 30 min at 37°C, phosphate buffer + 10% human serum
Description: as §1

[3] = background statement on α-aminobenzylpenicillin; cited from earlier work
[4] = tested on: Staph.aur. Oxford; test: antibacterial activity, tube dilution procedure in broth, Staph. aureus Oxford; type: cell-based; settings: Staphylococcus aureus
Excerpt: (§2) (termination of concentration according to the hydroxamate method; antibacterial activity determined by tube dilution procedure in broth).

[5] = tested on: E.coli; test: antibacterial activity, tube dilution procedure in broth, E. coli; type: cell-based; settings: Escherichia coli
Excerpt: as §2

[6] = tested on: P.mirabilis; test: antibacterial activity, tube dilution procedure in broth, P. mirabilis; type: cell-based; settings: Proteus mirabilis
Excerpt: as §2

[7] = tested on: Staph. aureus Oxford; test: growth inhibition of Staph. aureus Oxford (Examples); type: cell-based; settings: for MIC: Staphylococcus aureus, read-out: inhibited the growth of Staph. aureus Oxford at a concentration of
[8] = tested on: E. coli; test: growth inhibition of E. coli (Example 7a); type: cell-based; settings: Escherichia coli; read-out: inhibited the growth of E. coli at
[9] = tested on: P. mirabilis; test: growth inhibition of P. mirabilis (Example 7a); type: cell-based; settings: Proteus mirabilis; read-out: inhibited the growth of P. mirabilis at
[10] = human, in vivo, po, 480 min
Description: The oral absorption of 1'-ethoxycarbonyloxyethyl 6-(D-α-aminophenylacetamino)penicillanate (I) and of 1'-acetoxyethyl6-(D-α-aminophenylacetamido)penicillanate (II) was studied in a cross-over experiment in 9 healthy male volunteers using 6-(D-α-aminophenylacetamido)penicillanic acid (ampicillin) as a reference. The compounds were administered in tablets with the following composition:
The amounts of the esters correspond to 250 mg of free ampicillin. The reference compound was given in a commercially available tablet (Doktacillin 0.25 g) containing 250 mg of free ampicillin. The tablets were taken on an empty stomach. Blood samples were drawn at preset intervals and analyzed for their contents of ampicillin using a microbiological essay. The following mean serum levels (in μg/ml) with standard error of the mean were found:
The mean cumulative urinary excretions after 8 hours in percentage of the dose given were: […]

[11] = tested on: Staph. aureus Oxford; test: growth inhibition of Staph. aureus Oxford, solution test on agar; type: cell-based; settings: Staphylococcus aureus, read-out: inhibited the growth of Staph. Aureus Oxford at a concentration of
Description: (§3) The product inhibited the growth of Staph. Aureus Oxford at a concentration of 0.13 μg/ml and of E.coliat 125 μg/ml (solution test on agar) and contained in its IR-spectrum a strong absorption band at 1750 cm^-^1 showing presence of a β-lactame and an ester function.

[12] = tested on: E.coli; test: growth inhibition of E. coli, solution test on agar; type: cell-based; settings: Escherichia coli, read-out: inhibited the growth of E.coli at
Description: as §3

Row | SMILES | degraded at 0.5 h [1] | metabolised at 0.5 h [2] | MIC [7] | also measured
1 | CCCCC(=O)OC(C)OC(=O)[C@@H]1N2C(=O)[C@@H](NC(=O)[C@H](N)c3ccccc3)[C@H]2SC1(C)C (stereo partly drawn) [10 --CH--OCOC4 H9, 1'-valeryloxy-ethyl 6-(D-α-aminophenylacetamido)penicillanate] | 4.9% | 14.3% |  | 
2 | CC(OC(=O)C(C)C)OC(=O)[C@@H]1N2C(=O)[C@@H](NC(=O)[C@H](N)c3ccccc3)[C@H]2SC1(C)C (stereo partly drawn) [10 --CH--OCOCH(CH3)2, 1'-isobutyroxy-ethyl 6-(D-α-aminophenylacetamido)penicillanate] | 5.2% | 12.1% |  | 
3 | CC1(C)S[C@@H]2[C@H](NC(=O)[C@H](N)c3ccccc3)C(=O)N2[C@H]1C(=O)O [Ampicillin, 6-(D-α-aminophenylacetamido)penicillanic acid] |  |  |  | oral absorption [3]: orally absorbed relatively incompletely
4 | CCOC(=O)NCOC(=O)[C@@H]1N2C(=O)[C@@H](NC(=O)[C@H](N)c3ccccc3)[C@H]2SC1(C)C [Ethylcarbamatomethylester, ethoxycarbonylaminomethyl 6-(D-α-aminophenylacetamido)penicillanate] | 7.1% | 15.2% |  | MIC [4]: 0.16 mg/L (≈ 0.355 µM); MIC [5]: 12.5 mg/L (≈ 27.7 µM); MIC [6]: 6.25 mg/L (≈ 13.9 µM)
5 | CC(=O)OC(C)OC(=O)[C@@H]1N2C(=O)[C@@H](NC(=O)C(N)CCC(C)C)[C@H]2SC1(C)C (stereo partly drawn) [Example 5, 1'-Acetoxyethyl α-amino-δ-methylpentylpenicillinate] | 6% | 15.3% | 0.63 mg/L (≈ 1.47 µM) | 
6 | CC(=O)OC(C)OC(=O)[C@@H]1N2C(=O)[C@@H](NC(=O)[C@H](N)c3ccccc3)[C@H]2SC1(C)C (stereo partly drawn) [Example 7, 1'-Acetoxyethyl 6-(D-α-aminophenylacetamido)penicillanate] | 7% | 17% | 0.32 mg/L (≈ 0.735 µM) | inhibited the growth of Staph. aureus Oxford at a concentration of ([7]; listed as Example 7b): 0.25 µg/mL; MIC [8]: 50 mg/L (≈ 115 µM); MIC [9]: 50 mg/L (≈ 115 µM); mean cumulative urinary excretion after 8 hours in percentage of the dose given [10]: 53.7 ± 4.9%
7 | CCC(=O)OC(C)OC(=O)[C@@H]1N2C(=O)[C@@H](NC(=O)[C@H](N)c3ccccc3)[C@H]2SC1(C)C (stereo partly drawn) [Example 9, 1'-Propionyloxyethyl 6-(D-α-aminophenylacetamido) penicillanate] | 6.8% | 17.6% | 0.63 mg/L (≈ 1.4 µM) | 
8 | COC(=O)OCOC(=O)[C@@H]1N2C(=O)[C@@H](NC(=O)[C@H](N)c3ccccc3)[C@H]2SC1(C)C [Example 12, Methoxycarbonyloxymethyl 6-(D-α-aminophenylacetamido) penicillanate] | 24.8% | 77.9% | 0.13 mg/L (≈ 0.297 µM) | MIC [4]: 0.16 mg/L (≈ 0.366 µM); MIC [5]: 25 mg/L (≈ 57.1 µM); MIC [6]: 6.25 mg/L (≈ 14.3 µM)
9 | CCOC(=O)OC(C)OC(=O)[C@@H]1N2C(=O)[C@@H](NC(=O)[C@H](N)c3ccccc3)[C@H]2SC1(C)C (stereo partly drawn) [Example 15, 1'-Ethoxycarbonyloxyethyl 6-(D-α-aminophenylacetamido) penicillanate] | 3.8% | 57.1% | 0.13 mg/L (≈ 0.279 µM) | MIC [11]: 0.13 mg/L (≈ 0.279 µM); MIC [12]: 125 mg/L (≈ 269 µM); mean cumulative urinary excretion after 8 hours in percentage of the dose given [10]: 53.4 ± 2.5%
10 | CCOC(=O)OCOC(=O)[C@@H]1N2C(=O)[C@@H](NC(=O)[C@H](N)c3ccccc3)[C@H]2SC1(C)C [Example 17, Ethoxycarbonyloxymethyl 6-(D-α-aminophenylacetamido) penicillanate] | 13.3% | 64.7% | 0.05 mg/L (≈ 0.111 µM) | 
11 | CCCOC(=O)OCOC(=O)[C@@H]1N2C(=O)[C@@H](NC(=O)[C@H](N)c3ccccc3)[C@H]2SC1(C)C [Example 18, Propoxycarbonyloxymethyl 6-(D-α-aminophenylacetamido) penicillanate] | 14.5% | 53.7% | 0.05 mg/L (≈ 0.107 µM) | 
12 | CC(C)OC(=O)OCOC(=O)[C@@H]1N2C(=O)[C@@H](NC(=O)[C@H](N)c3ccccc3)[C@H]2SC1(C)C [Example 19, Isopropoxycarbonyloxymethyl 6-(D-α-aminophenylacetamido)penicillanate] | 15.2% | 68.4% | 0.05 mg/L (≈ 0.107 µM) | 
13 | CCCCOC(=O)OCOC(=O)[C@@H]1N2C(=O)[C@@H](NC(=O)[C@H](N)c3ccccc3)[C@H]2SC1(C)C [Example 20, Butoxycarbonyloxymethyl 6-(D-α-aminophenylacetamido) penicillanate] | 13% | 41.1% | 0.05 mg/L (≈ 0.104 µM) | 
14 | CC(=O)OC(C)OC(=O)[C@@H]1N2C(=O)[C@@H](NC(=O)[C@H](N)c3cccc(F)c3)[C@H]2SC1(C)C (stereo partly drawn) [Example 22, 1'-acetoxy-ethyl 6-(D-α-amino-m-fluorophenylacetamido) penicillanate] | 3.1% | 16.4% | 0.25 mg/L (≈ 0.551 µM) | 
15 | CCOC(=O)OC(C)OC(=O)[C@@H]1N2C(=O)[C@@H](NC(=O)[C@H](N)c3cccc(F)c3)[C@H]2SC1(C)C (stereo partly drawn) [Example 23, 1'-Ethyloxycarbonyloxyethyl 6-(D-α-amino-m-fluorophenylacetamido)penicillanate] | 2.6% | 37.7% |  | 
16 | CC(=O)OC(C)OC(=O)[C@@H]1N2C(=O)[C@@H](NC(=O)[C@H](N)c3ccc(F)cc3)[C@H]2SC1(C)C (stereo partly drawn) [Example 24, 1'-Acetoxyethyl 6-(D-α-amino-p-fluorophenylacetamido)penicillanate] | 9% | 14.3% | 0.25 mg/L (≈ 0.551 µM) | 
17 | CCOC(=O)OC(C)OC(=O)[C@@H]1N2C(=O)[C@@H](NC(=O)[C@H](N)c3ccc(F)cc3)[C@H]2SC1(C)C (stereo partly drawn) [Example 25, 1'-Ethyloxycarbonyloxyethyl 6-(D-α-amino-p-fluorophenylacetamido)penicillanate] | 1.4% | 20.2% | 0.25 mg/L (≈ 0.517 µM) | 
18 | CC(=O)OC(C)OC(=O)[C@@H]1N2C(=O)[C@@H](NC(=O)C(N)c3ccc(Cl)cc3)[C@H]2SC1(C)C (stereo partly drawn) [Example 26, 1'-Acetoxyetyl 6-(α-amino-p-chlorophenylacetamido)penicillanate] | 10.8% | 15.6% | 0.63 mg/L (≈ 1.34 µM) | 
19 | CC(=O)OC(C)OC(=O)[C@@H]1N2C(=O)[C@@H](NC(=O)[C@H](N)c3ccc(O)cc3)[C@H]2SC1(C)C (stereo partly drawn) [Example 27, 1'-Acetoxyethyl 6-(D-α-amino-p-hydroxyphenylacetamido)penicillanate] | 2.5% | 6.8% | 0.25 mg/L (≈ 0.554 µM) | 
20 | CCOC(=O)OC(C)OC(=O)[C@@H]1N2C(=O)[C@@H](NC(=O)[C@H](N)c3ccc(O)cc3)[C@H]2SC1(C)C (stereo partly drawn) [Example 28, 1'-Ethoxycarbonyloxyethyl 6-(D-α-amino-p-hydroxyphenylacetamido)penicillanate] | 5% | 33.1% | 0.25 mg/L (≈ 0.519 µM) | 
21 | CC(=O)OC(C)OC(=O)[C@@H]1N2C(=O)[C@@H](NC(=O)C(N)c3ccoc3)[C@H]2SC1(C)C (stereo partly drawn) [Example 29, 1'-Acetoxyethyl 6-(α-amino-3-furylacetamido)penicillanate] | 3.5% | 12.4% | 0.63 mg/L (≈ 1.48 µM) | 
